≈ marks a conversion by molar mass, not a printed value. Entries after “also recorded” stand apart in the source; their conditions may differ. Like-named read-outs stand apart in the source and are kept apart here.
Key:
[1] = system: rabbit corpus cavernosal smooth muscle; experiment: relaxation of CaCl2 pre-contracted rabbit corpus cavernosal smooth muscle strips (University of Pretoria); type: cell-based
Description: Strips (12 mm long and 1-2 mm thick) of rabbit corpus cavernosal smooth muscle were dissected and mounted in an organ-bath chamber containing Krebs-PSS solution with the following composition: […] One end of the muscle was tied to the inside bottom of the perfusion bath and the other end to a thin wire connected to a Harvard isotonic force transducer for isotonic tension measurements. Changes in isotonic tension were recorded on a computerized calibrating program. […] This was followed by perfusion with 2 ml of high CaCl2 in Krebs-PSS (17.8 mg/ml) for muscle contraction. Base-line tension was set at the point of maximal contraction following the addition of CaCl2 into the experimental bath. The extracts to be analyzed were added after a stable contraction base-line. The same procedure was repeated for the positive control, Sildenafil. The contraction/relaxation was reported relative to Sildenafil tested at 78 ng/ml.

rabbit corpus cavernosum = rabbit corpus cavernosum relaxation/contraction, phenylephrine-contracted strip (MDS Pharma); type: cell-based; settings: for Smooth Muscle relaxation (%) at 30 μM: relative to 0.3 μM sodium nitroprusside response, significant at ≧50%; for rabbit corpus cavernosum smooth muscle relaxation: isolated compounds at test concentration
Description: Rabbit corpus cavernosum relaxation/contraction was measured by the MDS Pharma Laboratory. Corpus cavernosum obtained from New Zealand-derived albino male rabbits weighing 2.5-3 kg and sacrificed by CO2 overexposure was used. A strip from the basal area of the corpus cavernosal was removed and placed under 2 g tension in a 10 ml bath containing Krebs solution at pH 7.4 at 32° C. and sub-maximal isometrically recorded tonic contraction was induced by phenylephrine (3 μM).

[2] = biological target: T1, Phosphodiesterase 5 enzyme, partially purified from human platelets (Homo sapiens, UniProt O76074); experiment: in vitro inhibition of the phosphodiesterase 5 enzyme (MDS Pharma); type: biochemical
T1 construct: Phosphodiesterase 5 enzyme, partially purified from human platelets, was used; tissue MDS Pharma Laboratory in Taiwan (assay performed there); host or cells: human platelets
Description: Inhibition of the phosphodiesterase 5 enzyme limits the hydrolysis of cyclic Guanisine MonoPhosphate (cGMP) to acyclic Guanisine MonoPhosphate (5′GMP) and thereby increases the intracellular concentrations of cGMP which results in the relaxation of the corpus cavernosum smooth muscle. When this muscle is relaxed blood flows and fills the arteries causing the penis to erect.
The assay of the inhibition of the phosphodiesterase 5 enzyme was carried out by the MDS Pharma Laboratory in Taiwan. Phosphodiesterase 5 enzyme, partially purified from human platelets, was used. Test compounds and/or vehicles were incubated with 3.5 μg enzyme and 1 μM cGMP containing 0.01 μM [^3H]cGMP in Tris buffer at pH 7.5 for 20 minutes at 30° C. The reaction was terminated by boiling for 2 minutes and the resulting GMP was converted to guanosine by addition of 10 mg/ml snake venom nucleotidase and further incubation at 30° C. for 10 minutes. Unhydrolyzed cGMP was bound to AG1-X2 resin, and remaining [^3H]guanosine in the aqueous phase was quantitated by scintillation counting. […] Since enzyme activity could change from lot to lot, the concentration used was adjusted if necessary.

[3] = system: Chinese hamster ovarian cells (CHO); experiment: in vitro cytotoxicity, MTT assay; settings: for cytotoxicity against Chinese hamster ovarian cells: at the test concentrations; for IC50: Cricetulus griseus
Description: In vitro cytotoxicity against mammalian cell line was assayed against Chinese hamster ovarian cells by the Assay Laboratory of the Department of Medicine, Division of Pharmacology, University of Cape Town, South Africa.
All samples were tested in triplicate on a single occasion. The MTT-assay was used as a calorimetric assay for cellular growth and survival, and compares well with other available assays (Mosman, Journal of Immunological Methods 65, 55-63 (1983) and Rubinstein et al., Journal of the National Cancer Institute 82, 1113-8 (1990)). The tetrazolium salt MTT was used to measure all growth and chemosensitivity.
Aqueous samples were dissolved in water and organic samples were dissolved in a methanol:water mixture (1:9) by volume. The initial concentration of stock solutions was 2 mg/ml for all samples. Samples were stored at −20° C. until use. […] Emetine was used as the positive control in all experiments. The initial concentration of emetine was 100 μg/ml, which was serially diluted in complete medium with 10-fold dilutions to give 6 concentrations, the lowest being 0.001 μg/ml. The same dilution technique was applied to all other samples with an initial concentration of 100 μg/ml to give 5 concentrations, with the lowest concentration being 0.01 μg/ml.
The 50% inhibitory concentration (IC50) values for these samples were obtained from dose-response curves, using a non-linear dose-response curve fitting analyses via GraphPad Prism v.2.01 software.

[4] = read-out: Phosphodiesterase 5 enzyme inhibition (%) at 10 μM, 10 μM, significant at ≧50%
[5] = read-out: Chinese hamster ovarian cell test IC50, MTT assay, triplicate, values ≦1.0 considered cytotoxic

Compound	Smooth Muscle relaxation (%) at 30 μM (rabbit corpus cavernosum) [%]	rabbit corpus cavernosum smooth muscle relaxation (rabbit corpus cavernosum)	cytotoxicity against Chinese hamster ovarian cells [3]	inhibition at 10 µM [2, 4] [%]	IC50 [3, 5] [µg/mL]	other results
CCCc1nn(C)c2c(=O)[nH]c(-c3cc(S(=O)(=O)N4CCN(C)CC4)ccc3OCC)nc12 [Viagra]	–	–	–	–	–	relaxation ([1]; at […] 10^−2 μg/ml, footnote of Table 14, same figure as the Table 13 footnote): 100%; smooth muscle relaxation ([1]; at […] 10^−5 mg/ml, positive control): Viagra showed 100% smooth muscle relaxation at 1.8 × 10^−5 mg/ml
COc1ccc(-c2c3c(c(OC)c4cc5c(cc24)OCO5)C(=O)OC3)cc1OC [Compound 7, 4-(3′,4′-dimethoxyphenyl)-9-methoxy-6,7-methylenedioxynaphtho[2,3-c]furan-1(3H)-one]	57	observed	non-cytotoxic; also recorded: least toxic	–	–	Phosphodiesterase 5 enzyme inhibition (%) at 10 μM ([2]; 10 μM, significant at ≧50%): 53%; phosphodiesterase 5 enzyme inhibition ([2]; isolated compounds at test concentration): Significant inhibition; Chinese hamster ovarian cell test IC50 ([3]; MTT assay, triplicate, values ≦1.0 considered cytotoxic): >100 µg/mL
COc1ccc(-c2c3c(c(O)c4cc5c(cc24)OCO5)COC3=O)cc1OC [Compound 5, 9-(3′,4′-dimethoxyphenyl)-4-hydroxy-6,7-methylenedioxynaphtho[2,3-c]furan-1(3H)-one]	75	observed	non-cytotoxic	29	28.5 (≈ 74.9 µM)	–
CC[C@H]1CN2CCc3cc(OC)c(OC)cc3[C@@H]2C[C@@H]1C[C@H]1NCCc2cc(OC)c(OC)cc21 [Emetine, reference compound]	–	–	–	–	0.04 (≈ 0.0832 µM)	–
COc1ccc(CC2COC(=O)/C2=C\c2ccc3c(c2)OCO3)cc1OC (stereo not drawn) [Compound 6, 3-(1′,3′-benzodioxol-5′-ylmethylene)-4-(3″,4″-dimethoxybenzyl)dihydrofuran-2(5H)-one]	71	–	non-cytotoxic; also recorded: least toxic	35	> 100	–
COc1cc2c(-c3ccc4c(c3)OCO4)c3c(c(OC)c2c(OC)c1OC)COC3=O [Compound 3, 9-(1′,3′-benzodioxol-5′-yl)-4,5,6,7-tetramethoxynaphtho[2,3-c]furan-1(3H)-one]	62	–	–	–	–	inhibition at 10 µM ([2]; read-out: Phosphodiesterase 5 enzyme inhibition (%) at 10 μM): 11%; IC50 ([3]; read-out: Chinese hamster ovarian cell test IC50): 9 µg/mL (≈ 21.2 µM)
